Experiments:
[1] = mn = molality of the nth substance listed, in mol/kg; conditions: 100 kPa, Liquid, Capillary tube (Ostwald / Ubbelohde) method
[2] = 100 kPa, Liquid, Capillary tube (Ostwald / Ubbelohde) method

OC[C@@H](O)[C@@H](O)[C@H](O)[C@H](O)CO [D-mannitol] + O
viscosity [mPa·s], [1]
Conditions	m1 = 0.0578	m1 = 0.0701	m1 = 0.0837	m1 = 0.12	m1 = 0.1409	m1 = 0.1659	m1 = 0.1943
288.15 K	1.181	1.19	1.199	1.224	1.236	1.254	1.278
298.15 K	0.919	0.928	0.935	0.949	0.959	0.974	0.986
308.15 K	0.741	0.746	0.753	0.763	0.771	0.779	0.791
318.15 K	0.611	0.617	0.62	0.629	0.636	0.644	0.651

O=C[C@@H](O)[C@@H](O)[C@H](O)[C@H](O)CO [D-mannose] + O
viscosity [mPa·s], [1]
Conditions	m1 = 0.0607	m1 = 0.0751	m1 = 0.0977	m1 = 0.1215	m1 = 0.134	m1 = 0.1525	m1 = 0.1822
288.15 K	–	1.183	1.195	1.207	1.216	1.224	1.243
298.15 K	–	0.921	0.931	0.94	0.945	0.954	0.966
308.15 K	0.739	0.744	0.749	0.757	0.76	0.767	0.776
318.15 K	0.61	0.614	0.62	0.625	0.629	0.635	0.64

O [water]
[2]
Conditions	viscosity [mPa·s]
288.15 K	1.138
298.15 K	0.89
308.15 K	0.719
318.15 K	0.596

CO[C@H]1O[C@H](CO)[C@@H](O)[C@H](O)[C@@H]1O [α-methyl mannopyranoside] + O
viscosity [mPa·s], [1]
Conditions	m1 = 0.0569	m1 = 0.0853	m1 = 0.1142	m1 = 0.1318	m1 = 0.1443
288.15 K	1.172	1.188	1.208	1.217	1.229
298.15 K	0.913	0.925	0.942	0.95	0.96
308.15 K	0.742	0.75	0.756	0.765	0.77
318.15 K	0.61	0.619	0.625	0.633	0.636
